The values below come from patent US20020026053A1, “Novel 3-(substituted) -2- indolinones compounds and use thereof as inhibitors of protein kinase activity” (priority 1997, published 2002).

For the assay, the target named is T1, Met receptor (EGFR/Met chimeric cells, EMR) (Homo sapiens, UniProt P08581).
T1 construct: expressed in transfected cells; the other entry of the earlier key: EGFR (P00533, Epidermal growth factor receptor)
Briefly: Met Autophosphorylation Assay. Type of assay: biochemical. Conditions: protocol P.130. An outline of the steps:
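Met phosphorylation was measured by capture ELISA. Lysates (90 μg/100 μl, HNTG plus 1 mM PMSF) from transiently transfected EGFR/Met chimera (EMR) cells were bound for 60 min at room temperature to wells holding rabbit anti-Met (C-28) on goat anti-rabbit coat. Phosphotyrosine was the read-out.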

T1 sequence (P08581 with tags, fused parts or gaps): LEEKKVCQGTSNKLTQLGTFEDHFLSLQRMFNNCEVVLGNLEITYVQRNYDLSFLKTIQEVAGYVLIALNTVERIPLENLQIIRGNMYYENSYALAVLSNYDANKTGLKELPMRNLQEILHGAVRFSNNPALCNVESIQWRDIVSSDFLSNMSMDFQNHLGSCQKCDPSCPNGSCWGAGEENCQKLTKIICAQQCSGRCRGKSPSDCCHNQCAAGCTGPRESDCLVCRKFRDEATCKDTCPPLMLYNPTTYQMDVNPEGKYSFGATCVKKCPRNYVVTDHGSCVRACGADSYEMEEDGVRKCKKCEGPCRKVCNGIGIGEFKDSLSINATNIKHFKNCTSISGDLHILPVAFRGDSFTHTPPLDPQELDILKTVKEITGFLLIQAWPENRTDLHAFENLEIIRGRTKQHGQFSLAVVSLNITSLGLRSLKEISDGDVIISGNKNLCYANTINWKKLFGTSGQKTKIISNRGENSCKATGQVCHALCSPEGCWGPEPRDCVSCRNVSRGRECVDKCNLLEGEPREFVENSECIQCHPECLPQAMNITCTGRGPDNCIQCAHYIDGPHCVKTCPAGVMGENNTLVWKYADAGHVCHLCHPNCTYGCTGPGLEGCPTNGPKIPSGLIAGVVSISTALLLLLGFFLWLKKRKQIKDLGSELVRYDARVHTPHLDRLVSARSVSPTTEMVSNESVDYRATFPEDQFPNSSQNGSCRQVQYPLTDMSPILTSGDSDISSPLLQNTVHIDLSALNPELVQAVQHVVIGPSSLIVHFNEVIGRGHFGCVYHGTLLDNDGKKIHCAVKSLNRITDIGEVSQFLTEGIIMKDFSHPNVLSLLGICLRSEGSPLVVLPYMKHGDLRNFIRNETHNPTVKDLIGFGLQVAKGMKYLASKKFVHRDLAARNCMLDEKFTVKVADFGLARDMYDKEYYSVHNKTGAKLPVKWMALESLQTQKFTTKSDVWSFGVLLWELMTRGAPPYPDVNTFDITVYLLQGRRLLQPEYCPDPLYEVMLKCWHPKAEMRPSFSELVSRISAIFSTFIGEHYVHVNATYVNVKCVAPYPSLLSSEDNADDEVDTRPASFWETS

`CCCCOc1ccc(C=C2C(=O)Nc3c(Br)cc(Br)c(C)c32)cc1` [10740/H11]: the “Met Kinase % Inhibition (P.130)” value was found to be 17.2%.
